Data set [1] deals with T1, Aromatase (Homo sapiens, UniProt P11511).
T1 sequence (P11511 whole entry): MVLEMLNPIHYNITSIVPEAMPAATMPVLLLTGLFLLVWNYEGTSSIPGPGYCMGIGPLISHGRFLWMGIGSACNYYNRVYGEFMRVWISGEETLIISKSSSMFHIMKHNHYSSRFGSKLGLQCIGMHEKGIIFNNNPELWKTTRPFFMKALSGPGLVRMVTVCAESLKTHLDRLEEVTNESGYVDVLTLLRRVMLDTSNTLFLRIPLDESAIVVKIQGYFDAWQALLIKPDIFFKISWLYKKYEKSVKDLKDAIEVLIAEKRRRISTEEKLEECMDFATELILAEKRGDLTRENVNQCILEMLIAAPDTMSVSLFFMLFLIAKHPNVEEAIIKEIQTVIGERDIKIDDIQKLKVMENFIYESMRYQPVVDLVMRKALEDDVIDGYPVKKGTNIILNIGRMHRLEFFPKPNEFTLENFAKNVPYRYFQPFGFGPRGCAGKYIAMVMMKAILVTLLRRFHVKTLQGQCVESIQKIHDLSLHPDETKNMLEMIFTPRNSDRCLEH
Description: Evaluated for its competitive inhibitory activity against Cytochrome P450 19A1 with the use of human placental microsomal preparation. The arrangement: species or system Placenta. The note with it: read-out: Ki app.

Data set [2] addresses T1, Aromatase.
Description: (§1) Inhibition of Cytochrome P450 19A1 at the concentration of 0.25 uM
Data set [3] addresses T1, Aromatase. This is another data set of the same source.
Description: (§2) Inhibition of Cytochrome P450 19A1 at the concentration of 0.75 uM
For data set [4], the target named is T1, Aromatase. The source holds these as a separate data set.
Description: (§3) Inhibition of Cytochrome P450 19A1 at the concentration of 1.5 uM
The target of data set [5] is T1, Aromatase. The following applies: 0.25 µM.
Description: as §1
In data set [6] the target is T1, Aromatase. The following applies: 0.75 µM.
Description: as §2
In data set [7] the target is T1, Aromatase. The following applies: 1.5 µM.
Description: as §3

Structures are written as SMILES. pKi: −log10 of the molar value.

As for `CC(=O)SC1=C2CCC3C4CCC(=O)C4(C)CCC3C2(C)CCC1=O` (stereo not drawn), the negative-log Ki (pKi) (in general, the negative decadic logarithm of the Ki, by convention in mol/L) in data set [1] was 7.14. Further, 0.25 µM produced 19% inhibition in data set [2]. Moreover, the inhibition (commonly how much of the control response was suppressed) at 0.75 µM in data set [3] was 42%. The compound also had an inhibition at 1.5 µM in data set [4] of 58%.
Take `CCSC1=C2CCC3C4CCC(=O)C4(C)CCC3C2(C)CCC1=O` (stereo not drawn): in data set [1], the pKi was 7.39. In addition, in data set [2], the inhibition at 0.25 µM is 26%. This compound had an inhibition at 0.75 µM in data set [3] of 45%. The same compound came in with an inhibition at 1.5 µM in data set [4] of 52%.
As for `CCCSC1=C2CCC3C4CCC(=O)C4(C)CCC3C2(C)CCC1=O` (stereo not drawn), in data set [1], the pKi is 7.19. The same compound came in with an inhibition at 0.25 µM in data set [2] of 25%. In addition, at 0.75 µM the inhibition in data set [3] was 42%. In data set [4], this compound came in with an inhibition at 1.5 µM of 49%.
In data set [2], `CCCCCSC1=C2CCC3C4CCC(=O)C4(C)CCC3C2(C)CCC1=O` (stereo not drawn) came in with an inhibition at 0.25 µM of 2%. In addition, the inhibition at 0.75 µM in data set [3] was determined as 4%. In data set [4], this compound had an inhibition at 1.5 µM of 8%.
The corresponding values for `Cc1ccc(SC2=C3CCC4C5CCC(=O)C5(C)CCC4C3(C)CCC2=O)cc1` (stereo not drawn) are 14%, 27% and 31%.
In data set [2], `CC12CCC3C(CCC4=C(SCc5ccccc5)C(=O)CCC43C)C1CCC2=O` (stereo not drawn) gave an inhibition at 0.25 µM of 2%. The inhibition at 0.75 µM in data set [3] was 5%. In data set [4], this compound returned an inhibition at 1.5 µM of 8%.
The corresponding values for `CC(=O)OC1=C2CCC3C4CCC(=O)C4(C)CCC3C2(C)CCC1=O` (stereo not drawn) are 38%, 70% and 78%.
As to `CC12CCC3C(CCC4=C(Sc5ccccc5)C(=O)CCC43C)C1CCC2=O` (stereo not drawn), the pKi in data set [1] was 7.44. The compound further displayed an inhibition at 0.25 µM in data set [2] of 36%. This compound also had an inhibition at 0.75 µM in data set [3] of 55%. The same compound showed an inhibition at 1.5 µM in data set [4] of 68%.
For the compound `CC12CCC3C(CCC4=C(Sc5ccc([N+](=O)[O-])cc5)C(=O)CCC43C)C1CCC2=O` (stereo not drawn), testing at 0.25 µM in data set [2] gave an inhibition of 0%. 0.75 µM produced 0% inhibition in data set [3]. Also, at 1.5 µM the inhibition in data set [4] was 0%.
Consider `CCCCSC1=C2CCC3C4CCC(=O)C4(C)CCC3C2(C)CCC1=O` (stereo not drawn), for which, in data set [2], the inhibition at 0.25 µM was determined as 8%. Further, in data set [3], the inhibition at 0.75 µM was 12%. This compound displayed an inhibition at 1.5 µM in data set [4] of 18%.
In the case of `CSC1=C2CCC3C4CCC(=O)C4(C)CCC3C2(C)CCC1=O` (stereo not drawn), the pKi in data set [1] is 7.23. In data set [2], this compound displayed an inhibition at 0.25 µM of 39%. Further, the inhibition at 0.75 µM in data set [3] was determined as 61%. In data set [4], this compound had an inhibition at 1.5 µM of 74%.
In data set [2], `CC12CCC3C(CCC4=C(S)C(=O)CCC43C)C1CCC2=O` (stereo not drawn) displayed an inhibition at 0.25 µM of 31%. This compound returned an inhibition at 0.75 µM in data set [3] of 52%. This compound returned an inhibition at 1.5 µM in data set [4] of 63%.
The corresponding values for `CC12CCC3C(CCC4=C(Sc5ccc(Br)cc5)C(=O)CCC43C)C1CCC2=O` (stereo not drawn) are 0%, 4% and 6%.
The corresponding values for `COc1ccc(SC2=C3CCC4C5CCC(=O)C5(C)CCC4C3(C)CCC2=O)cc1` (stereo not drawn) are 0%, 0% and 2%.
Consider `CC12CCC3C(CCC4=C(Sc5ccc(N)cc5)C(=O)CCC43C)C1CCC2=O` (stereo in doubt), for which the pKi in data set [1] was 7.74. In addition, the values for the Inhibition in data set [5], in data set [6] and in data set [7] were 46%, 70% and 82%, respectively.
For `CC12CCC3C(CCC4=C(Sc5ccc(N)cc5)C(=O)CCC43C)C1CCC2=O` (stereo in doubt; 14), the Inhibition in data set [5], in data set [6] and in data set [7] was 0% in each case.
As for `C[C@]12CCC(=O)C(O)=C1CC[C@@H]1[C@@H]2CC[C@]2(C)C(=O)CC[C@@H]12` [FORMESTANE], the pKi in data set [1] was 7.27. 0.25 µM produced 49% inhibition in data set [2]. Also, in data set [3], the inhibition at 0.75 µM was determined as 74%. Moreover, the inhibition at 1.5 µM in data set [4] came to 84%.
